# Test results from patent publication US6737383B1, “Herbicidal oxadiazolidines” (priority 1999, dated 2004).
# How the values were obtained:
# cocklebur = assay: Test B pre/postemergence cocklebur; assay type: in vivo, Xanthium strumarium
# In short: (§1)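 Herbicidal effect was estimated by eye on a ten-point control scale after plants spent twelve to sixteen days in a greenhouse following soil or foliar treatment. Foliar sprays targeted plants at one to four leaves; all doses were formulated in a non-phytotoxic solvent with surfactant.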
# giant foxtail = assay: Test B pre/postemergence giant foxtail; assay type: in vivo, Setaria faberii
# In short: as §1
# morningglory = assay: Test B pre/postemergence morningglory; assay type: in vivo, Ipomoea hederacea
# In short: as §1
# bamyardgrass = assay: Test B flood test barnyardgrass; assay type: in vivo, Echinochloa crus-galli
# In short: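 Each value is a visual injury score relative to controls, with 10 meaning complete control and 0 no effect. Evaluation took place twelve to sixteen days after the 2-leaf-stage plants were treated and kept in the greenhouse.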
# [1] = Preemergence, Rate 62 g/ha, scale of 0 to 10 where 0 is no effect and 10 is complete control
# [2] = Preemergence, Rate 250 g/ha, scale of 0 to 10 where 0 is no effect and 10 is complete control
# [3] = Preemergence, Rate 500 g/ha, scale of 0 to 10 where 0 is no effect and 10 is complete control
# [4] = Rate 125 g/ha, Postemergence, scale of 0 to 10 where 0 is no effect and 10 is complete control
# [5] = Rate 125 g/ha, Preemergence, scale of 0 to 10 where 0 is no effect and 10 is complete control
# [6] = Rate 250 g/ha, Postemergence, scale of 0 to 10 where 0 is no effect and 10 is complete control
# [7] = Rate 500 g/ha, Postemergence, scale 0 to 10, 0 no effect, 10 complete control
# [8] = Rate 62 g/ha, headed Pre-emergence (flood test species), scale 0 to 10 (0 no effect, 10 complete control)
# [9] = Rate 125 g/ha, Pre-emergence, flood test species, scale 0 to 10 where 0 is no effect and 10 is complete control
# [10] = Rate 250 g/ha, Pre-emergence, flood-test species, scale 0 to 10, 0 is no effect, 10 is complete control
# [11] = Rate 500 g/ha, Pre-emergence, flood test species, scale 0 to 10 (0 no effect, 10 complete control)
# [12] = Postemergence, Rate 1000 g/ha, scale 0 to 10 (0 no effect, 10 complete control)
# [13] = Rate 1000 g/ha, Preemergence, scale 0 to 10 (0 no effect, 10 complete control)
# [14] = Rate 62 g/ha, Postemergence, scale 0 to 10 (0 no effect, 10 complete control)
# [15] = Postemergence, Rate 31 g/ha, visual rating, scale 0 to 10 (0 no effect, 10 complete control)
# [16] = Preemergence, Rate 31 g/ha, visual rating, scale 0 to 10 (0 no effect, 10 complete control)
# [17] = Postemergence, Rate 125 g/ha, scale 0 to 10, 0 is no effect, 10 is complete control
SMILES,Cocklebur plant response rating (cocklebur; [1]),Cocklebur plant response rating (cocklebur; [2]),Cocklebur plant response rating (cocklebur; [4]),"Plant response rating, Cocklebur (cocklebur; [6])",Giant foxtail plant response rating (giant foxtail; [1]),Giant foxtail plant response rating (giant foxtail; [2]),Giant foxtail plant response rating (giant foxtail; [4]),"Plant response rating, Giant foxtail (giant foxtail; [6])",Morningglory plant response rating (morningglory; [1]),Morningglory plant response rating (morningglory; [2]),Morningglory plant response rating (morningglory; [4]),"Plant response rating, Morningglory (morningglory; [6])",Barnyardgrass plant response rating (bamyardgrass; [8]),Barnyardgrass plant response rating (bamyardgrass; [9]),Barnyardgrass plant response rating (bamyardgrass; [10]),Barnyardgrass plant response rating (bamyardgrass; [11]),Cocklebur plant response rating (cocklebur; [14]),"Giant foxtail plant response rating (0 to 10 scale) (giant foxtail; Preemergence, Rate 125 g/ha)",Giant foxtail plant response rating (giant foxtail; [14]),"Morningglory plant response rating (0 to 10 scale) (morningglory; Preemergence, Rate 125 g/ha)",other results
Cc1ccccc1-n1c(=O)on(C(=O)N(c2ccc(C(C)(C)C)cc2)C(C)C)c1=O [Compound 270],0,0,0,0,0,0,0,0,0,0,0,0,0,0,0,0,–,–,–,–,"Plant response rating, Cocklebur (cocklebur; [3]): 0; Cocklebur plant response rating (cocklebur; Rate 62 g/ha, Postemergence, scale of 0 to 10 where 0 is no effect and 10 is complete control): 0; Cocklebur plant response rating (cocklebur; [5]): 0; Cocklebur plant response rating (cocklebur; [7]): 0; Plant response rating, Giant foxtail (giant foxtail; [3]): 0; Giant foxtail plant response rating (giant foxtail; [5]): 0; Giant foxtail plant response rating (giant foxtail; [7]): 0; Plant response rating, Morningglory (morningglory; [3]): 0; Morningglory plant response rating (morningglory; [5]): 0; Morningglory plant response rating (morningglory; [7]): 0"
C=CCn1c(=O)on(C(=O)N(c2ccc(F)cc2)C(C)C(=O)OCC)c1=O (centres unmarked) [Compound 279],–,–,0,0,–,6,0,0,–,0,1,2,–,0,0,0,–,–,–,–,"Cocklebur plant response rating (cocklebur; [12]): 0; Plant response rating, Cocklebur (cocklebur; [3]): 0; Cocklebur plant response rating (cocklebur; [7]): 0; Plant response rating, Cocklebur (cocklebur; [13]): 0; Giant foxtail plant response rating (giant foxtail; [12]): 4; Plant response rating, Giant foxtail (giant foxtail; [3]): 7; Giant foxtail plant response rating (giant foxtail; [5]): 3; Giant foxtail plant response rating (giant foxtail; [7]): 1; Plant response rating, Giant foxtail (giant foxtail; [13]): 7; Morningglory plant response rating (morningglory; [12]): 3; Plant response rating, Morningglory (morningglory; [3]): 0; Morningglory plant response rating (morningglory; [5]): 0; Morningglory plant response rating (morningglory; [7]): 2; Plant response rating, Morningglory (morningglory; [13]): 0; Barnyardgrass plant response rating (bamyardgrass; Pre-emergence, Rate 1000 g/ha, scale 0 to 10 (0 no effect, 10 complete control)): 0"
CC(C)N(C(=O)n1oc(=O)n(C2CCCCO2)c1=O)c1ccc(F)cc1 (centres unmarked) [Compound 311],0,0,0,0,0,0,0,0,0,0,4,8,0,0,0,0,0,0,0,0,"Cocklebur plant response rating (0 to 10 scale) (cocklebur; Preemergence, Rate 125 g/ha): 0; Cocklebur plant response rating (cocklebur; [3]): 0; Cocklebur plant response rating (cocklebur; [7]): 0; Giant foxtail plant response rating (giant foxtail; [3]): 0; Morningglory plant response rating (morningglory; [3]): 0; Morningglory plant response rating (morningglory; [14]): 0"
CC(C)C(C)n1c(=O)on(C(=O)N(c2ccc(F)cc2)C(C)C)c1=O (centres unmarked) [Compound 316],0,0,0,0,9,10,0,2,0,0,4,5,3,6,9,9,0,10,0,0,Cocklebur plant response rating (cocklebur; [3]): 2; Cocklebur plant response rating (cocklebur; [7]): 0; Giant foxtail plant response rating (giant foxtail; [3]): 10; Morningglory plant response rating (morningglory; [3]): 0; Morningglory plant response rating (morningglory; [14]): 3
Cc1cccc(C)c1-n1c(=O)on(C(=O)N(c2ccc(Cl)cc2Cl)C2CCC2)c1=O [Compound 318],0,0,0,5,0,0,0,0,0,0,0,3,0,0,0,–,0,0,0,0,"Cocklebur plant response rating (cocklebur; [15]): 0; Cocklebur plant response rating (cocklebur; [16]): 0; Cocklebur plant response rating (0 to 10 scale) (cocklebur; Preemergence, Rate 125 g/ha): 0; Giant foxtail plant response rating (giant foxtail; [15]): 0; Giant foxtail plant response rating (giant foxtail; [16]): 0; Morningglory plant response rating (morningglory; [15]): 0; Morningglory plant response rating (morningglory; [14]): 0; Barnyardgrass plant response rating (bamyardgrass; Rate 31 g/ha, Pre-emergence section (flood test species), scale 0 to 10): 0"
CC(C)N(C(=O)n1oc(=O)n(CCCN(C)C)c1=O)c1ccc(F)cc1 [Compound 323],0,0,0,0,0,0,0,0,0,0,0,2,0,0,0,0,0,0,0,0,"Cocklebur plant response rating (0 to 10 scale) (cocklebur; Preemergence, Rate 125 g/ha): 0; Cocklebur plant response rating (cocklebur; [3]): 0; Plant response rating, Cocklebur (cocklebur; [7]): 0; Giant foxtail plant response rating (giant foxtail; [3]): 2; Plant response rating, Giant foxtail (giant foxtail; [7]): 0; Morningglory plant response rating (morningglory; [3]): 0; Morningglory plant response rating (morningglory; [14]): 0; Plant response rating, Morningglory (morningglory; [7]): 3"
CC(C)N(C(=O)n1oc(=O)n(C2CC3CCC2C3)c1=O)c1ccc(F)cc1F (centres unmarked) [Compound 326],0,0,–,0,0,8,–,0,0,0,–,–,0,0,8,9,0,2,0,0,"Plant response rating, Cocklebur (cocklebur; [17]): 0; Cocklebur plant response rating (0 to 10 scale) (cocklebur; Preemergence, Rate 125 g/ha): 0; Cocklebur plant response rating (cocklebur; [3]): 0; Plant response rating, Cocklebur (cocklebur; [7]): 2; Plant response rating, Giant foxtail (giant foxtail; [17]): 0; Giant foxtail plant response rating (giant foxtail; [3]): 9; Plant response rating, Giant foxtail (giant foxtail; [7]): 2; Plant response rating, Morningglory (morningglory; [17]): 7; Morningglory plant response rating (morningglory; [3]): 0; Morningglory plant response rating (morningglory; [14]): 5; Plant response rating, Morningglory (morningglory; [7]): 10"
